Results on six molecules are retold here after patent publication US5219884A, “Immunosuppressant” (Taito Co., Ltd., priority 1990, dated 1993).

The test system of test [1] is human allogenic MLR (peripheral blood lymphocytes). Nature of the test: human allogenic MLR-suppressive activity. It counts as cell-based. The following applies: for inhibition at 0.0001 µg/mL / inhibition at 0.001 µg/mL / inhibition at 0.01 µg/mL / inhibition at 0.1 µg/mL / inhibition at 1 µg/mL / inhibition at 10 µg/mL / inhibition at 10 pg/mL: Homo sapiens, read-out: Suppression; for inhibition at 0.0001 µg/mL / inhibition at 0.001 µg/mL / inhibition at 0.01 µg/mL / inhibition at 0.1 µg/mL / inhibition at 1 µg/mL / inhibition at 10 µg/mL / inhibition at 10 pg/mL / IC50: Lymphocyte; for IC50: human allogenic MLR, read-out: 50%-inhibition concentration (IC50). The method, then:
The human allogenic MLR-suppressive activity was assayed as follows:
Human peripheral blood lymphocytes obtained by Ficoll-Paque density gradient centrifugation of normal human peripheral blood were suspended in the RPMI1640 medium supplemented with 10% FCS, placed in plastic dishes, and incubated at 37° C. in an atmosphere of 5% carbon dioxide for 2 hours. After termination of incubation, the supernatant after gentle pipetting was harvested and centrifuged (1000 rpm, for 5 minutes) to obtain plastic-nonadherent cells. The plastic-nonadherent cells were allowed to pass through a nylon-wool column to give nylon-nonadherent cells, and the concentration of the cell suspension was adjusted to 4×10^6 cells/ml by using the RPMI1640 culture medium supplemented with 10% FCS, and used as the responder cell suspension.
The plastic-adherent cells were removed from the plastic dish by vigorous pipetting after addition of phosphate buffered saline supplemented with 5% FCS and 0.02% disodium ethylenediamine-tetraacetic acid (EDTA). The plastic-adherent cells were treated with 40 μg/ml of mitomycin C at 37° C. for 60 minutes, washed three times, and suspended to the concentration of 4×10^6 cells/ml in the RPMI1640 culture medium supplemented with 10% FCS. The resultant suspension was used as the stimulator cell suspension. Fifty μl of the responder cell suspension from the donor A or C was mixed with 50 μl of the stimulator cell suspension from the donor B or D, to which 100 μl of the test substance was added, and cultured at 37° C. in the an atmosphere 5% carbon dioxide for 5 days.
After termination of the culture, 1.0 μCi/well of ^3 H-thymidine was added, and after 18 hours of culture, the cells were harvested by a cell-harvester. The radioactivity incorporated into the cells was measured by a liquid scintillation counter as the index of blastogenic response of lymphocytes in human allogenic MLR. The suppression of human allogenic MLR was evaluated by calculating the percent suppression by the following formula. [formula]

In test [2] the test system is IL2-dependent mouse cell line CTLL-2. The test can be described thus: suppression of IL-2 induced 3H-thymidine incorporation of CTLL-2. It counts as cell-based. To be noted: for inhibition at 0.01 µg/mL / inhibition at 0.1 µg/mL / inhibition at 1 µg/mL / inhibition at 10 µg/mL: Mus musculus; for inhibition at 0.01 µg/mL / inhibition at 0.1 µg/mL / inhibition at 10 µg/mL: read-out: Suppression. On the procedure: IL2-dependent mouse cell line CTLL-2 cells were suspended in the RPMI1640 culture medium supplemented with 30% FCS to a concentration of 2×10^5 cells/ml. The suspension (50 μl) and 50 μl of concanavalin A-stimulated rat spleen cell culture supernatants containing IL2 were added to each well of 96-well microculture plates in which 100 μl of the test substance had been placed. After culturing at 37° C. in an atmosphere of 5% carbon dioxide for 20, 44, or 68 hours, 0.5 μCi/well of ^3 H-thymidine was added, and cultured for 4 hours under the same conditions. After termination of the culture, the cells were harvested by a cell harvester, and the radioactivity incorporated into the cells was measured by a liquid scintillation counter.
(Uptake of a labelled nucleoside into DNA is a usual measure of proliferation.)

Where [3] appears, read: 72 hrs, second run (control 30168 cpm), 0.1 μg/ml.
Setting [4] is: 72 hrs, second run (control 30168 cpm), 1 μg/ml.
Where [5] appears, read: CTLL-2, 72 hrs, second run (control 30168 cpm), 0.1 μg/ml.
The mark [6] stands for this setting: CTLL-2, 72 hrs, second run (control 30168 cpm), 1 μg/ml.

≈ marks a conversion by molar mass, not a printed value. Where two headings read alike, the source gives them in different places.

On to `CCCCCCC(=O)CCCCCC/C=C/CC1OC(=O)C(N)(CO)C1O` (stereo not shown) [Example 4], for which the inhibition at 0.0001 µg/mL amounted to 32.3% in test [1] (donor A/donor B, 0.0001 μg/ml) and 61.9% in test [1] (donor C/donor D, 0.0001 μg/ml). Besides, the inhibition at 0.001 µg/mL in test [1] (donor A/donor B, 0.001 μg/ml) was determined as 47.4%; in test [1] (donor C/donor D, 0.001 μg/ml), 58.5%. In addition, the inhibition at 0.01 µg/mL in test [1] (donor A/donor B, 0.01 μg/ml) came out at 65.8%; in test [1] (donor C/donor D, 0.01 μg/ml), 80.8%; in test [2] (CTLL-2, 48 h) it was 13.3%; in test [2] (CTLL-2, 24 hrs, 0.01 μg/ml) it was 11.8%; in test [2] (CTLL-2, 72 hrs, 0.01 μg/ml, control 78515 cpm) it was 11.8%. In addition, the inhibition at 0.1 µg/mL is 89.2% in test [1] (donor A/donor B, 0.1 μg/ml); 84.9% in test [1] (donor C/donor D, 0.1 μg/ml); 37.5% in test [2] (CTLL-2, 24 hrs, 0.1 μg/ml); 64.6% in test [2] (CTLL-2, 48 hrs, 0.1 μg/ml); 79.4% in test [2] (CTLL-2, 72 hrs, 0.1 μg/ml, control 78515 cpm). In addition, the inhibition at 1 µg/mL in test [1] (donor A/donor B, 1 μg/ml) was determined as 83.5%; in test [1] (donor C/donor D, 1 μg/ml), 79.2%; in test [2] (CTLL-2, 24 hrs, 1 μg/ml) it was 19.6%; in test [2] (CTLL-2, 48 hrs, 1 μg/ml), 72.7%; in test [2] (CTLL-2, 72 hrs, 1 μg/ml, control 78515 cpm) it was 95.6%. The inhibition at 10 µg/mL turned out to be 86.4% in test [1] (donor A/donor B, 10 μg/ml); 62.7% in test [2] (CTLL-2, 24 hrs, 10 μg/ml); 71.6% in test [2] (CTLL-2, 48 hrs, 10 μg/ml); 85.7% in test [2] (CTLL-2, 72 hrs, 10 μg/ml, control 78515 cpm). In test [1] (donor C/donor D, 0.00001 μg/ml), the inhibition at 10 pg/mL was found to be 55.8%. Moreover, the IC50 in test [1] came to 0.79 ng/mL (≈ 2.06 nM). The 3H-thymidine uptake in test [1] (donor A/donor B, 0.0001 μg/ml) amounted to 16963 cpm; in test [1] (donor A/donor B, 0.001 μg/ml), 13715 cpm; in test [1] (donor A/donor B, 0.01 μg/ml) it was 9754 cpm; in test [1] (donor A/donor B, 0.1 μg/ml), 4734 cpm; in test [1] (donor A/donor B, 1 μg/ml), 5954 cpm; in test [1] (donor A/donor B, 10 μg/ml) it was 5332 cpm. Further, the 3H-thymidine uptake in test [1] (donor C/donor D, 0.00001 μg/ml) was 7746 cpm; in test [1] (donor C/donor D, 0.0001 μg/ml), 6700 cpm; in test [1] (donor C/donor D, 0.001 μg/ml) it was 7278 cpm; in test [1] (donor C/donor D, 0.01 μg/ml) it was 3417 cpm; in test [1] (donor C/donor D, 0.1 μg/ml), 2708 cpm; in test [1] (donor C/donor D, 1 μg/ml), 3703 cpm. The 3H-thymidine uptake in test [2] (24 hrs, 0.01 μg/ml) is recorded as 5907 cpm; in test [2] (24 hrs, 0.1 μg/ml) it was 4240 cpm; in test [2] (24 hrs, 1 μg/ml), 5400 cpm; in test [2] (24 hrs, 10 μg/ml) it was 2602 cpm; in test [2] (48 hrs, 0.01 μg/ml), 21930 cpm; in test [2] (48 hrs, 0.1 μg/ml), 9202 cpm. The 3H-thymidine uptake is reported as 7202 cpm in test [2] (48 hrs, 1 μg/ml); 7465 cpm in test [2] (48 hrs, 10 μg/ml); 69355 cpm in test [2] (72 hrs, 0.01 μg/ml, control 78515 cpm); 16705 cpm in test [2] (72 hrs, 0.1 μg/ml, control 78515 cpm); 4088 cpm in test [2] (72 hrs, 1 μg/ml, control 78515 cpm); 11806 cpm in test [2] (72 hrs, 10 μg/ml, control 78515 cpm).

Regarding `CCCCCCC(O)CCCCCC/C=C/CC(O)C(O)C(N)(CO)C(=O)O` (stereo not shown) [Example 6], the inhibition at 0.0001 µg/mL in test [1] (donor A/donor B, 0.0001 μg/ml) is 45.2%; in test [1] (donor C/donor D, 0.0001 μg/ml) it was 14%. For the same molecule, the inhibition at 0.001 µg/mL is 56.2% in test [1] (donor A/donor B, 0.001 μg/ml) and 51.7% in test [1] (donor C/donor D, 0.001 μg/ml). In addition, the inhibition at 0.01 µg/mL in test [1] (donor A/donor B, 0.01 μg/ml) stood at 81.7%; in test [1] (donor C/donor D, 0.01 μg/ml) it was 77%. The inhibition at 0.1 µg/mL in test [1] (donor A/donor B, 0.1 μg/ml) was 81.3%; in test [1] (donor C/donor D, 0.1 μg/ml), 80.3%; in test [2] (setting [5]) it was 76.2%. Moreover, the inhibition at 1 µg/mL came out at 83.9% in test [1] (donor A/donor B, 1 μg/ml); 86.4% in test [1] (donor C/donor D, 1 μg/ml); 95.7% in test [2] (setting [6]). Further, the inhibition at 10 µg/mL in test [1] (donor A/donor B, 10 μg/ml) is 90%. The inhibition at 10 pg/mL in test [1] stood at 6.8%. The IC50 in test [1] is 0.22 ng/mL (≈ 0.545 nM). Besides, the 3H-thymidine uptake stood at 14191 cpm in test [1] (donor A/donor B, 0.0001 μg/ml); 11753 cpm in test [1] (donor A/donor B, 0.001 μg/ml); 6335 cpm in test [1] (donor A/donor B, 0.01 μg/ml); 6418 cpm in test [1] (donor A/donor B, 0.1 μg/ml); 5877 cpm in test [1] (donor A/donor B, 1 μg/ml); 4564 cpm in test [1] (donor A/donor B, 10 μg/ml). The 3H-thymidine uptake in test [1] (donor C/donor D, 0.00001 μg/ml) stood at 16241 cpm; in test [1] (donor C/donor D, 0.0001 μg/ml), 14996 cpm; in test [1] (donor C/donor D, 0.001 μg/ml), 8468 cpm; in test [1] (donor C/donor D, 0.01 μg/ml), 4082 cpm; in test [1] (donor C/donor D, 0.1 μg/ml) it was 3501 cpm; in test [1] (donor C/donor D, 1 μg/ml), 2448 cpm. The values for the 3H-thymidine uptake in test [2] (setting [3]) and in test [2] (setting [4]) were 7237 cpm and 1346 cpm, respectively.

As for `CCCCCCC(=O)CCCCCCCCCC1OC(=O)C(N)(CO)C1O` (stereo not shown) [Example 7], the values for the 3H-thymidine uptake in test [2] (setting [3]) and in test [2] (setting [4]) were 37960 cpm and 2088 cpm, respectively. Moreover, the inhibition at 0.1 µg/mL in test [2] (setting [5]) is 0%. In addition, the inhibition at 1 µg/mL in test [2] (setting [6]) is 93.3%.

Regarding `CCCCCCC(O)CCCCCCCCCC(O)C(O)C(N)(CO)C(=O)O` (stereo not shown) [Example 9], the 3H-thymidine uptake in test [2] (setting [3]) is reported as 33835 cpm; in test [2] (setting [4]), 2247 cpm. Besides, the inhibition at 0.1 µg/mL in test [2] (setting [5]) is 0%. Also, the inhibition at 1 µg/mL in test [2] (setting [6]) is 92.7%.

As for `CCCCCCC(O)CCCCCCCCCC1OC(=O)C(N)(CO)C1O` (stereo not shown) [Example 10], the figures for the 3H-thymidine uptake in test [2] (setting [3]) and in test [2] (setting [4]) were 28083 cpm and 1844 cpm, respectively. The inhibition at 0.1 µg/mL in test [2] (setting [5]) turned out to be 6.9%. The molecule also came in with an inhibition at 1 µg/mL in test [2] (setting [6]) of 94.1%.

Consider `CCCCCCC(=O)CCCCCC/C=C/CC1OC(=O)C(CO)(NC(C)=O)C1O` (stereo not shown) [Example 11], for which the 3H-thymidine uptake in test [2] (setting [3]) came out at 33948 cpm; in test [2] (setting [4]) it was 4876 cpm. In addition, the inhibition at 0.1 µg/mL in test [2] (setting [5]) was found to be 0%. The inhibition at 1 µg/mL in test [2] (setting [6]) was 84%.
